Results: PubChem BioAssay (NCI)
Where “and” joins values, the source holds several entries; their conditions need not be identical. Equal entries are not always repeated.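 Method: 48-hour compound exposure of cells in 96-well plates, five concentrations, linear interpolation of endpoints. Here, GI50 denotes the concentration required for 50% inhibition of growth. TGI: concentration producing complete growth inhibition.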

Experiments:
Test in all cases: NCI tumour cell line growth inhibition, 48 h
[1] = tested on: SK-MEL-5 melanoma
[2] = tested on: K-562 leukemia
[3] = tested on: HL-60(TB) leukemia
[4] = tested on: A549 NSCLC
[5] = tested on: HT29 colon
[6] = tested on: SR leukemia
[7] = tested on: MDA-MB-435
[8] = tested on: HOP-62 NSCLC
[9] = tested on: NCI-H226 lung
[10] = tested on: SF-539 CNS

COc1ccc(OC)c(-c2nc3sccn3c2/C=C2/C(=O)Nc3ccc(Cl)cc32)c1
GI50 [1]: 17.4 µM
TGI [1]: 33.1 µM
GI50 [2]: 29.9 µM
TGI [2]: > 100 µM
GI50 [3]: 31.2 µM
TGI [3]: 76 µM
GI50 [4]: 38.9 µM
TGI [4]: > 100 µM
GI50 [5]: 25.7 µM
TGI [5]: 67.3 µM
GI50 [6]: 18.5 µM
TGI [6]: 53.4 µM
GI50 [7]: 17.2 µM
TGI [7]: 44.9 µM
GI50 [8]: 25 µM
TGI [8]: 60.5 µM
GI50 [9]: 20.8 µM
TGI [9]: 67.3 µM
GI50 [10]: 24.3 µM
TGI [10]: 60.9 µM

O=C1c2ccccc2C(=O)c2c1ccc(C(Br)Br)c2[N+](=O)[O-]
GI50 [1]: 1.77 µM
TGI [1]: 3.73 µM
GI50 [3]: 1.87 µM
TGI [3]: 4.22 µM
GI50 [4]: 17.6 µM
TGI [4]: 33.6 µM
GI50 [5]: 1.72 µM
TGI [5]: 3.24 µM
GI50 [6]: 0.259 µM
TGI [6]: 1.75 µM
GI50 [7]: 1.76 µM
TGI [7]: 3.29 µM
GI50 [8]: 1.42 µM
TGI [8]: 2.99 µM
GI50 [9]: 0.727 µM
TGI [9]: 2.62 µM
GI50 [10]: 1.76 µM
TGI [10]: 3.41 µM

CC(=O)Oc1ccc(OC(C)=O)c2ccccc12
GI50 [1]: 13.5 µM
TGI [1]: 26.4 µM
GI50 [2]: 3.39 µM
TGI [2]: 22 µM
GI50 [3]: 2.72 µM
TGI [3]: 7.87 µM
GI50 [4]: 34.9 µM
TGI [4]: > 100 µM
GI50 [5]: 34.6 µM
TGI [5]: > 100 µM
GI50 [6]: 3.19 µM
TGI [6]: 11.7 µM
GI50 [7]: 3.86 µM
TGI [7]: 15 µM
GI50 [8]: 12.6 µM
TGI [8]: 25.3 µM
GI50 [9]: 14.4 µM
TGI [9]: 31.3 µM
GI50 [10]: 13.2 µM
TGI [10]: 26.4 µM

C=C1CCC2C3(C)COC(c4ccc(NC(C)=O)cc4)OC3CCC2(C)C1C/C=C1/C(=O)OCC1O (stereo not drawn)
GI50 [1]: 3.57 µM
TGI [1]: > 100 µM
GI50 [2]: 2.26 µM
TGI [2]: > 100 µM
GI50 [3]: 2.93 µM
TGI [3]: > 100 µM
GI50 [4]: 5.03 µM
TGI [4]: > 100 µM
GI50 [5]: 5.35 µM
TGI [5]: > 100 µM
GI50 [6]: 2.33 µM
TGI [6]: 85.1 µM
GI50 [7]: 8.8 µM
TGI [7]: > 100 µM
GI50 [8]: > 100 µM
TGI [8]: > 100 µM
GI50 [9]: 26.3 µM
TGI [9]: > 100 µM
GI50 [10]: > 100 µM
TGI [10]: > 100 µM

CN1/C(=C\C(I)C(I)C2=[N+](C)c3ccccc3C2(C)C)C(C)(C)c2ccccc21 (stereo not drawn)
GI50 [1]: 0.126 µM
TGI [1]: 0.528 µM
GI50 [2]: 0.202 µM
TGI [2]: 14.6 µM
GI50 [3]: 0.178 µM
TGI [3]: 0.651 µM
GI50 [4]: 0.283 µM
TGI [4]: 18.3 µM
GI50 [5]: 0.242 µM
TGI [5]: 11.4 µM
GI50 [6]: 0.151 µM
TGI [6]: 13.8 µM
GI50 [7]: 0.26 µM
TGI [7]: 11.6 µM
GI50 [8]: 0.383 µM
TGI [8]: 13.8 µM
GI50 [9]: 0.2 µM
TGI [9]: 24.2 µM
GI50 [10]: 0.783 µM
TGI [10]: 23.6 µM

C#CCN1C(=O)/C(=c2\sc3n(c2=O)C2C(NN=3)N(CC)C(=O)N2CC)c2ccccc21 (stereo not drawn)
GI50 [1]: 0.529 µM
TGI [1]: > 85.9 µM
GI50 [2]: 0.342 µM
TGI [2]: > 100 µM
GI50 [3]: 0.271 µM
TGI [3]: 0.775 µM
GI50 [4]: 0.968 µM
TGI [4]: > 100 µM
GI50 [5]: 0.387 µM
TGI [5]: > 100 µM
GI50 [6]: 0.344 µM
TGI [6]: > 100 µM
GI50 [7]: 0.214 µM
TGI [7]: 0.507 µM
GI50 [8]: 0.868 µM
TGI [8]: > 52.6 µM
GI50 [9]: 1.25 µM
TGI [9]: > 83.2 µM
GI50 [10]: 0.295 µM
TGI [10]: 1.4 µM

CC1(C)CCC[C@]23C(=O)O[C@](O)(C(=O)C4=C[C@@](C)(/C=C/CCCc5ccc6ccc7cccc8ccc5c6c78)CC[C@@]42O)[C@@H]13
GI50 [1]: 0.185 µM
TGI [1]: 0.327 µM
GI50 [2]: 0.3 µM
TGI [2]: 3.19 µM
GI50 [3]: 0.248 µM
TGI [3]: 0.649 µM
GI50 [4]: 0.202 µM
TGI [4]: 0.678 µM
GI50 [5]: 0.235 µM
TGI [5]: 0.603 µM
GI50 [6]: 0.292 µM
GI50 [7]: 0.173 µM
TGI [7]: 0.323 µM
GI50 [8]: 0.215 µM
TGI [8]: 0.563 µM
GI50 [9]: 0.166 µM
TGI [9]: 0.328 µM
GI50 [10]: 0.17 µM
TGI [10]: 0.322 µM

CN(C)CCCNc1nn2c(=O)c3ccccc3nc2c2ccccc12
GI50 [1]: 7.74 µM
TGI [1]: 20.9 µM
GI50 [2]: 9.94 µM
TGI [2]: 31.8 µM
GI50 [3]: 18.1 µM
TGI [3]: 72.7 µM
GI50 [4]: 5.64 µM
TGI [4]: 25.2 µM
GI50 [5]: 3.46 µM
TGI [5]: 14.7 µM
GI50 [6]: 2.55 µM
TGI [6]: 8.74 µM
GI50 [7]: 6.24 µM
TGI [7]: 22.5 µM
GI50 [8]: 8.26 µM
TGI [8]: 21.5 µM
GI50 [9]: 5.13 µM
TGI [9]: 25.5 µM
GI50 [10]: 3.95 µM
TGI [10]: 15.4 µM

CC[C@@]1(O)C(=O)NCc2c1cc1n(c2=O)Cc2cc3ccccc3nc2-1
GI50 [1]: 2.77 µM
TGI [1]: 18.7 µM
GI50 [2]: 4.4 µM
TGI [2]: > 100 µM
GI50 [3]: 1.33 µM
TGI [3]: > 24 µM
GI50 [4]: 2.37 µM
TGI [4]: > 100 µM
GI50 [5]: 9.05 µM
TGI [5]: > 93.7 µM
GI50 [6]: 0.123 µM
TGI [6]: 0.503 µM
GI50 [7]: 10.9 µM
TGI [7]: > 100 µM
GI50 [8]: 0.42 µM
TGI [8]: 4.31 µM
GI50 [9]: > 100 µM
TGI [9]: > 100 µM
GI50 [10]: 1.71 µM
TGI [10]: 11 µM

C/C1=C\[C@H](C)C[C@H](C)OC(=O)C[C@H](c2ccc(O)cc2)NC(=O)[C@@H](Cc2c(Br)[nH]c3ccccc23)N(C)C(=O)[C@H](C)NC(=O)[C@@H](C)C1
GI50 [1]: 0.0451 µM
TGI [1]: 0.578 µM and 0.391 µM
GI50 [2]: 0.229 µM
TGI [2]: > 49.8 µM
GI50 [3]: 0.0176 µM
TGI [3]: 0.384 µM and 0.175 µM
GI50 [4]: 0.0318 µM
GI50 [5]: 0.0216 µM
TGI [5]: 0.897 µM and 8.94 µM
GI50 [6]: 0.587 µM
TGI [6]: 4.21 µM
GI50 [7]: 0.0445 µM
TGI [7]: 17.7 µM
GI50 [8]: 0.0883 µM
TGI [8]: 0.443 µM and 0.369 µM
GI50 [9]: 0.0268 µM
TGI [9]: 0.661 µM and 0.0703 µM
GI50 [10]: 0.238 µM
TGI [10]: 0.622 µM and 0.0655 µM

O=C1c2ccccc2C(=O)c2c(NCCCNCCO)ccc(NCCCNCCO)c21
TGI [1]: 28.7 µM
TGI [2]: 13.9 µM
TGI [3]: 33.8 µM
TGI [4]: 47.3 µM
TGI [5]: 15.9 µM
TGI [6]: 20.8 µM
TGI [7]: 25.7 µM
TGI [8]: 23.8 µM
TGI [9]: 12.3 µM
TGI [10]: 15.3 µM

C/C(=C\c1ccc(Cl)cc1)C(C)(C)C(=O)O
TGI [1]: > 100 µM
TGI [2]: > 100 µM
TGI [3]: > 100 µM
TGI [4]: > 100 µM
TGI [5]: > 100 µM
TGI [6]: > 100 µM
TGI [7]: > 100 µM
TGI [8]: > 100 µM
TGI [9]: > 100 µM
TGI [10]: > 100 µM

Nc1ncnc2c1c(C(F)(F)F)cn2[C@@H]1O[C@H](CO)[C@@H](O)[C@H]1O
GI50 [1]: 0.402 µM
TGI [1]: 5.02 µM
GI50 [2]: 0.304 µM
TGI [2]: 1.41 µM
GI50 [3]: 0.212 µM
TGI [3]: 0.492 µM
GI50 [4]: 0.324 µM
TGI [4]: > 56.1 µM
GI50 [6]: 0.341 µM
GI50 [7]: 0.066 µM
TGI [7]: 2.08 µM
GI50 [8]: 0.278 µM
TGI [8]: > 100 µM
GI50 [9]: 1.12 µM
TGI [9]: 79.7 µM
GI50 [10]: 0.642 µM
TGI [10]: 2.73 µM
